Patent publication US7144982B2, “Polypeptides with therapeutic activity and methods of use” (University of Minnesota, priority 2000, dated 2006)
Like-named read-outs stand apart in the source and are kept apart here. Ends that are not written are not given here.

Columns and labels:
Human red blood cells = type: cell-based; conditions: for hemolysis: red cells of human, 1 h
Protocol: Human red blood cells were washed three times using phosphate buffered saline (PBS: 35 mM phosphate buffer, 0.15 M NaCl, pH 7.0) prior to performing the assay. One hundred μL of human red blood cells suspended in 0.4% (v/v) PBS was placed in eppendorf tubes, and 100 μL of serially diluted peptides in PBS was added (peptide concentration ranged from 1 μM to 100 μM). Tubes were incubated for 1 hr at 37° C. and centrifuged at 1000 g for 5 min. One hundred μL aliquots of the supernatant was then transferred to eppendorf tubes, and hemolysis was measured by absorbance at 414 nm. Zero percentage hemolysis and 100% hemolysis were determined in PBS and in 1% Triton-X 100, respectively. The hemolysis percentage was calculated using the following formula: % hemolysis=[(A414 in the peptide solution−A414 in PBS)/(A414 in 1% Triton-X 100−A414 in PBS)]×100.

P. aeruginosa = conditions: against P. aeruginosa; Lee et al. 1989; cited from earlier work
[1] = test system: Pseudomonas aeruginosa type 1; assay: Bactericidal assay, P. aeruginosa (P.a.); type: cell-based; conditions: SD about ±30%; for LD50 bactericidal activity, Gram-neg. smooth P.a.: Table 4, SC-4 variants; for LD50 bactericidal activity, Gram neg. smooth P.a.: Table 1, P. aeruginosa
Description: (§1) Pseudomonas aeruginosa type 1 is a clinical, smooth strain isolate serotyped by using the scheme of Homma, Japan. J. Exp. Med. 46, 329–336 (1976) and maintained in the lab by monthly transfer on blood agar plates. E. coli J96, IA2, and H5 are smooth strain, uropathogenic clinical isolates kindly maintained and provided by J. R. Johnson and described in Johnson et al., J. Infect. Disease 173, 920–926 (1996) for J96 and IA2 and in Johnson et al., J. Infect. Disease 173, 746–749 (1996) for H5. J5 is an E. coli rough strain initially referenced by G. R. Siber and discussed in Warren et al., Infect. Immunity 55, 1668–1673 (1987) and is analogous to the smooth strain E. coli 0111:B4 used in the BioWhittaker LAL endotoxin detection and quantitation kit described below. Gram-positive MN8 and MNHO are two patient isolates of Staphylococcus aureus, which were kindly provided by P. M. Schlievert and described in Bohach et al., Rev. Infect. Diseases 11, 75–82 (1989) for MNHO and in Schlievert et al., J. Infect. Diseases 147, 236–242 (1983) for MN8. All cultures are maintained on nutrient agar plates.
(§2) Pyrogen-free solutions were used throughout the assay. Log phase bacteria were obtained by transferring an overnight culture or scraping crystals off −85° C. glycerol stocks of overnight cultures. Bacteria were washed and resuspended in 0.9% sodium chloride with adjustment to an optical density at 650 nm which yields 3×10^8 CFU/ml. Bacteria were then diluted 1:10 in 0.08 M citrate phosphate buffer, pH 7.0 (prepared by mixing 0.08 M citric acid with 0.08 M dibasic sodium phosphate). Bacteria (0.15 ml) were incubated with peptide in a final volume of 1.0 ml of buffer. The assay was done in 17×100 polypropylene tubes in a reciprocal water bath shaker at 37° C. for 30 minutes. Following this 30 minute (min) incubation, 10-fold dilutions were made in 0.9% sodium chloride. Dilutions were done to 10^−4 and 20 μl of each dilution was streaked across an agar plate. Gram-positive organisms were plated on nutrient agar plates containing 2% agar and Gram-negative organisms were plated on MacConkey agar (2%). Plates were incubated overnight at 37° C. and counted the next morning. The dilution containing 10–100 bacteria was counted and the number multiplied by 50 to adjust all counts to the number bacteria killed per milliliter. Peptide concentrations were converted to logarithm base ten and graphed. Bactericidal activity was determined by dose response where LD50 values were determined by best fits of a sigmoidal curve to the dose response data.

E. coli 055:B5 LPS = assay: Limulus amoebocyte lysate assay for LPS neutralization; type: biochemical; conditions: for drop in LPS neutralizing activity relative to SC-4: SC-3: relative to either SC-4 or SC-5
Description: The ability of synthetic peptides to neutralize endotoxin was detected using the chromogenic QCL-1000 kit from BioWhittaker, Inc. (Walkersville, Md.) as described in their protocol. This method is quantitative for Gram-negative bacterial endotoxin (lipopolysaccharide, LPS). In the Limulus amebocyte lysate (LAL) assay, peptides that are active inhibit the LPS-mediated activation of a proenzyme (Young et al., J. Clin. Invest. 51, 1790–1797 (1972)) whose active form would release p-nitroaniline (pNA) from a colorless synthetic substrate (Ac-Ile-Glu-Ala-Arg-pNA), producing a yellow color (pNA) whose absorption is monitored spectrophotometrically at 405–410 nm. The initial rate of enzyme activation is proportional to the concentration of endotoxin present. The concentration of peptide required to bind to LPS and therefore to inhibit the Limulus amoebocyte lysate driven by 0.04 unit (or 0.01 ng) of E. coli 055:B5 LPS (from SIGMA) was determined by dose response.

[2] = test system: Staphylococcus aureus MNHO; assay: Bactericidal assay, Gram-positive S. aureus MNHO; type: cell-based; conditions: SD about ±30%
Description: as §1, §2

E. coli J5 = assay: Bactericidal assay, rough strain E. coli J5; type: cell-based; conditions: for LD50 bactericidal activity, Gram-neg. rough J5: Table 4, SC-4 variants; for LD50 bactericidal activity, Gram-neg. rough J5 / LD50 bactericidal activity, Gram neg. rough J5: SD about ±30%; for LD50 bactericidal activity, Gram neg. rough J5: Table 1, E. coli J5
Description: as §1, §2

[3] = test system: Staphylococcus aureus MN8; assay: Bactericidal assay, Gram-positive S. aureus MN8; type: cell-based; conditions: Table 1, SD about ±30%
Description: as §1, with “Diseases 11, 75–82 (1989) for MNHO and in Schlievert et al., J. Infect. Diseases 147, 236–242 (1983) for MN8. All cultures are maintained on nutrient agar plates.” left out
(§3) Pyrogen-free solutions were used throughout the assay. […] Plates were incubated overnight at 37° C. and counted the next morning. The dilution containing 10–100 bacteria was counted and the number multiplied by 50 to adjust all counts to the number bacteria killed per milliliter. […] Bactericidal activity was determined by dose response where LD50 values were determined by best fits of a sigmoidal curve to the dose response data.

E. coli J96 = type: cell-based; conditions: for LD50 bactericidal activity, Gram neg. smooth J96: Table 1, E. coli J96, SD about ±30%
Description: as §1
as §2, with “The assay was done in 17×100 polypropylene tubes in a reciprocal water bath shaker at 37° C. for 30 minutes. Following this 30 minute (min) incubation, 10-fold dilutions were made in 0.9% sodium chloride. Dilutions were done to 10^−4 and 20 μl of each dilution was streaked across an agar plate. Gram-positive organisms were plated on nutrient agar plates containing 2% agar and Gram-negative organisms were plated on MacConkey agar (2%).” left out, “Peptide concentrations were converted to logarithm base ten and graphed.” left out

E. coli H5 = assay: Bactericidal assay, smooth strain E. coli H5; type: cell-based; conditions: Table 1, SD about ±30%
Description: as §1, with “Diseases 11, 75–82 (1989) for MNHO and in Schlievert et al., J. Infect. Diseases 147, 236–242 (1983) for MN8. All cultures are maintained on nutrient agar plates.” left out
as §3

E. coli IA2 = assay: Bactericidal assay, smooth strain E. coli IA2; type: cell-based; conditions: Table 1, SD about ±30%
Description: as §1, with “Diseases 11, 75–82 (1989) for MNHO and in Schlievert et al., J. Infect. Diseases 147, 236–242 (1983) for MN8. All cultures are maintained on nutrient agar plates.” left out
as §3

bacteria = conditions: cited from earlier work
[4] = Table 4, SC-4 variants, SD about ±30%, read-out: LPS neutralization IC50
[5] = read-out: IC50 LPS neutralization
[6] = Table 1, SD about ±30%, read-out: LPS effect, IC50 for neutralization of LPS

Substance | hemolysis (Human red blood cells; 1e-4 M) | LD50 bactericidal activity, Gram-neg. smooth P.a. [1] | IC50 (E. coli 055:B5 LPS; [4]) [µM] | LD50 bactericidal activity, Gram-positive MNHO ([2]; Table 4, SC-4 variants) | LD50 bactericidal activity, Gram-neg. rough J5 (E. coli J5) | other results
KRHLKWKIIVKL-NH2 [SC-5, KRHLKWKIIVKL] | around 70% | – | – | – | – | hemolysis (Human red blood cells; 1e-6 M): 15-30%
KLSVQMKLFKRH-NH2 [SC-2, KLSVQMKLFKRH] | ~15% | – | – | – | – | –
cecropin P1 | – | – | – | – | – | lethal concentration (P. aeruginosa): 6 µM
K L F K X H L K W K I I-NH2 [SC-409] | – | 0.22 10^−6 M | 3 | 0.3 10^−6 M | 0.001 10^−6 M | LPS neutralization in words (E. coli 055:B5 LPS): nearly full activity
K L F K R H L X W K I I-NH2 [SC-406] | – | 0.05 10^−6 M | 3 | 2 10^−6 M | 0.005 10^−6 M | LPS neutralization in words (E. coli 055:B5 LPS): essentially no affect
QMKLFKRHLKWK [SC-401, Q M K L F K R H L K W K-NH2] | – | 0.06 10^−6 M | – | XXX (XXX means not active at concentrations below 1 × 10^−5 M.) | 0.004 10^−6 M | drop in LPS neutralizing activity relative to SC-3 (E. coli 055:B5 LPS): 5 fold; drop in LPS neutralizing activity relative to SC-4 (E. coli 055:B5 LPS): 60 fold; IC50 (E. coli 055:B5 LPS; [5]): 126 µM
BG-22: peptide 28 mer having the amino acid sequence from the β-sheet domain of bactericidal/permeability increasing (B/PI) protein (residues 82–108) (NANIKISGKWKAQKRFLKMSGNFDLSI; UniProt P17213 113-139, looked up, fragment) [reference compound] | – | – | – | – | – | LD50 bactericidal activity, Gram-positive MN8 [3]: 0.5 10^−6 M; LD50 bactericidal activity, Gram neg. smooth P.a. [1]: 0.05 10^−6 M; LD50 bactericidal activity, Gram neg. smooth J96 (E. coli J96): 0.52 10^−6 M; IC50 (E. coli 055:B5 LPS; [6]): 5 µM; LD50 bactericidal activity, Gram-positive MNHO ([2]; Table 1, S. aureus MNHO): 0.63 10^−6 M; LD50 bactericidal activity, Gram neg. smooth H5 (E. coli H5): 0.71 10^−6 M; LD50 bactericidal activity, Gram neg. smooth IA2 (E. coli IA2): 0.32 10^−6 M; LD50 bactericidal activity, Gram neg. rough J5 (E. coli J5): 0.09 10^−6 M
MKLFKRHLKWKIIV [SC-403, M K L F K R H L K W K I I V-NH2] | – | 0.05 10^−6 M | 6 | 0.4 10^−6 M | 0.002 10^−6 M | –
VQMKLFKRHLKW-NH2 [SC-3, VQMKLFKRHLKW] | ~10% | – | – | – | – | –
VKLNDGRELSLD-NH2 [SC-8, VKLNDGRELSLD] | ~10% | – | – | – | – | –
ANIKLSVQMKLFKRHLKWKIIVKLNDGRELSLD-NH2 [βpep-25, reference compound] | about 5% | – | – | – | – | –
KLFKRHLKWKII-NH2 [SC-4, KLFKRHLKWKII] | ~10% | – | – | – | – | LD50 (E. coli J96; J96): 250 nM; concentration below which not hemolytic (Human red blood cells): ≥ 10^−4 M; LD50 (E. coli J5; against J5 (Gram-negative bacteria)): 3 nM
LKWKIIVKLNDG-NH2 [SC-6, LKWKIIVKLNDG] | ~15% | – | – | – | – | –
K L F X R H L K W K I I-NH2 [SC-405] | – | 0.17 10^−6 M | 7 | 0.4 10^−6 M | 0.006 10^−6 M | drop in LPS neutralizing activity relative to SC-4 (E. coli 055:B5 LPS): about 3 fold
K L F K K H L K W K I I-NH2 [SC-408] | – | 0.07 10^−6 M | 1000 | 2 10^−6 M | 0.003 10^−6 M | LPS neutralization in words (E. coli 055:B5 LPS): does not affect LPS binding; drop in LPS neutralizing activity relative to SC-4 (E. coli 055:B5 LPS): about 500 fold
X L F K R H L K W K I I-NH2 [SC-404] | – | 0.22 10^−6 M | 7 | 1 10^−6 M | 0.004 10^−6 M | drop in LPS neutralizing activity relative to SC-4 (E. coli 055:B5 LPS): about 3 fold
ANIKLSVQMKLF-NH2 [SC-1, ANIKLSVQMKLF] | around 70% | – | – | – | – | hemolysis (Human red blood cells; 1e-6 M): 15-30%
MKLFKRHLKWKI [SC-402, M K L F K R H L K W K I-NH2] | – | 0.07 10^−6 M | 25 | 6 10^−6 M | 0.005 10^−6 M | drop in LPS neutralizing activity relative to SC-4 (E. coli 055:B5 LPS): 12 fold; IC50 (E. coli 055:B5 LPS; [5]): 25 µM
K L F K R H L K W X I I-NH2 [SC-407] | – | 0.05 10^−6 M | 3 | 1 10^−6 M | 0.007 10^−6 M | LPS neutralization in words (E. coli 055:B5 LPS): essentially no affect
SIQKLNVSMKLFRKQAKWKIIVKLNDGRELSLD [βpep-19, reference compound] | – | – | – | – | – | LD50 bactericidal activity, Gram-positive MN8 [3]: 0.25 10^−6 M; LD50 bactericidal activity, Gram neg. smooth P.a. [1]: 0.03 10^−6 M; bactericidal concentration range (bacteria; Mayo et al. 1998): ~10^−8 M; LD50 bactericidal activity, Gram neg. smooth J96 (E. coli J96): 0.1 10^−6 M; IC50 (E. coli 055:B5 LPS; [6]): 2 µM; IC50 (E. coli 055:B5 LPS; [5]): ~2 µM; LD50 bactericidal activity, Gram-positive MNHO ([2]; Table 1, S. aureus MNHO): 0.16 10^−6 M; LD50 bactericidal activity, Gram neg. smooth H5 (E. coli H5): 0.71 10^−6 M; LD50 bactericidal activity, Gram neg. smooth IA2 (E. coli IA2): 0.06 10^−6 M; LD50 bactericidal activity, Gram neg. rough J5 (E. coli J5): 0.01 10^−6 M
KIIVKLNDGREL-NH2 [SC-7, KIIVKLNDGREL] | ~15% | – | – | – | – | –
KLKLLLLLKLK-NH2 [antibacterial peptide of the literature forming channels in bacterial membranes] | – | – | – | – | – | effective antibacterial concentration (bacteria; Alvarez-Bravo et al. 1995): 100 µM
